Results reported in ChEMBL document CHEMBL1129842, “ATP-sensitive potassium channel openers: Synthesis and antihypertensive activity of 4-bicyclyloxybenzopyrans” (1997).

How the values were obtained:
[1] = tested on: Rattus norvegicus; experiment: Potassium channel opening activity is expressed as area under curve (AUC), determined in spontaneously hypertensive rats (SHR's) after oral administration; assay type: functional
[2] = tested on: Rattus norvegicus; experiment: Antihypertensive activity in spontaneously hypertensive rats (SHR''s) was evaluated after oral administration; ED50 mmHg; assay type: functional
[3] = Rattus norvegicus, po, read-out: ED50

SMILES	ECAUC0.2 [1]	ED50 [2, 3]	ED50 [2]
Cn1nc(OC2c3cc(C#N)ccc3OC(C)(C)C2O)ccc1=O (racemic)	0.25 µM	0.023 mg/kg	–
CC1(C)Oc2ccc(C#N)cc2[C@@H](N2CCCC2=O)[C@@H]1O [LEVCROMAKALIM]	1.6 µM	0.14 mg/kg	–
CN1N=C(OC2c3cc([N+](=O)[O-])ccc3OC(C)(C)C2O)C2CC2C1=O (racemic)	–	0.049 mg/kg	–
CN1N=C(OC2c3cc(C#N)ccc3OC(C)(C)C2(C)O)C2CC2C1=O (racemic)	–	0.0042 mg/kg	–
Cn1nc(OC2c3cc(C#N)ccc3OC(C)(C)C2O)c2c(c1=O)CCC2 (racemic)	–	0.86 mg/kg	–
Cn1nc(O[C@@H]2c3cc(C#N)ccc3OC(C)(C)[C@H]2O)ccc1=O	0.16 µM	0.0064 mg/kg	–
CN1N=C(OC2c3cc(C#N)ccc3OC(C)(C)C2O)C2CC2C1=O (racemic; form 2)	0.39 µM	–	0.047 mg/kg
CN1N=C(O[C@@H]2c3cc(C(F)(F)C(F)(F)F)ccc3OC(C)(C)[C@H]2O)[C@@H]2C[C@@H]2C1=O (racemic)	–	0.047 mg/kg	–
CC1(C)Oc2ccc(C#N)cc2C(N2CCCC2=O)C1O (racemic) [CROMAKALIM]	2.8 µM	0.31 mg/kg	–
CN1N=C(N[C@@H]2c3cc(C#N)ccc3OC(C)(C)[C@H]2O)[C@@H]2C[C@@H]2C1=O	–	0.0065 mg/kg	–
CN1N=C(O[C@@H]2c3cc(C#N)ccc3OC(C)(C)[C@H]2O)C2CC2C1=O (single isomer, unassigned; (-))	0.18 µM	0.029 mg/kg	–
CN1N=C(O[C@@H]2c3cc(C#N)ccc3OC(C)(C)[C@H]2O)C2C(C1=O)C2(C)C (mixture of isomers)	–	> 0.1 mg/kg	–
Cn1nc(OC2c3cc(C#N)ccc3OC(C)(C)C2O)c2ccccc2c1=O (racemic)	–	> 10 mg/kg	–
CN1N=C(O[C@@H]2c3cc(C#N)ccc3OC(C)(C)[C@@]2(C)O)[C@@H]2C[C@@H]2C1=O	0.021 µM	0.0023 mg/kg	–
CN1N=C(OC2c3ccc([N+](=O)[O-])cc3OC(C)(C)C2O)C2CC2C1=O (racemic)	–	> 0.3 mg/kg	–
CN1N=C(OC2c3cc(C#N)ccc3OC(C)(C)C2O)C2CC2C1=O (racemic; form 1)	–	–	>1 mg/kg
